Laboratory results reported in ChEMBL document CHEMBL1782000, “Thiazole-based chalcones as potent antimicrobial agents. Synthesis and biological evaluation” (2011).
Converted amounts (≈) assume the structure as drawn.

Columns and labels:
Staphylococcus aureus [1] = assay: Antibacterial activity against Staphylococcus aureus ATCC 6538 after 24 hrs by microdilution method; format: functional; conditions: ATCC 6538, 24 h
Bacillus cereus [2] = assay: Antibacterial activity against Bacillus cereus clinical isolate after 24 hrs by microdilution method; format: functional
Micrococcus flavus [3] = assay: Antibacterial activity against Micrococcus flavus ATCC 10240 after 24 hrs by microdilution method; format: functional; conditions: ATCC 10240, 24 h
Listeria monocytogenes [4] = assay: Antibacterial activity against Listeria monocytogenes NCTC 7973 after 24 hrs by microdilution method; format: functional; conditions: NCTC 7973, 24 h
Pseudomonas aeruginosa [5] = assay: Antibacterial activity against Pseudomonas aeruginosa ATCC 27853 after 24 hrs by microdilution method; format: functional; conditions: ATCC 27853, 24 h
Salmonella typhimurium [6] = assay: Antibacterial activity against Salmonella Typhimurium ATCC 13311 after 24 hrs by microdilution method; format: functional, Salmonella enterica subsp. enterica serovar Typhimurium; conditions: Salmonella enterica, ATCC 13311, 24 h
Escherichia coli [7] = assay: Antibacterial activity against Escherichia coli ATCC 35210 after 24 hrs by microdilution method; format: functional; conditions: ATCC 35210, 24 h
Enterococcus faecalis [8] = assay: Antibacterial activity against Enterococcus faecalis isolate obtained from human after 24 hrs by microdilution method; format: functional
Staphylococcus aureus [9] = assay: Bactericidal activity against Staphylococcus aureus ATCC 6538 after 24 hrs; format: functional; conditions: ATCC 6538, 24 h
Bacillus cereus [10] = assay: Bactericidal activity against Bacillus cereus clinical isolate after 24 hrs; format: functional
Micrococcus flavus [11] = assay: Bactericidal activity against Micrococcus flavus ATCC 10240 after 24 hrs; format: functional; conditions: ATCC 10240, 24 h
Listeria monocytogenes [12] = assay: Bactericidal activity against Listeria monocytogenes NCTC 7973 after 24 hrs; format: functional; conditions: NCTC 7973, 24 h
Pseudomonas aeruginosa [13] = assay: Bactericidal activity against Pseudomonas aeruginosa ATCC 27853 after 24 hrs; format: functional; conditions: ATCC 27853, 24 h
Salmonella typhimurium [14] = assay: Bactericidal activity against Salmonella Typhimurium ATCC 13311 after 24 hrs; format: functional, Salmonella enterica subsp. enterica serovar Typhimurium; conditions: Salmonella enterica, ATCC 13311, 24 h
Escherichia coli [15] = assay: Bactericidal activity against Escherichia coli ATCC 35210 after 24 hrs; format: functional; conditions: ATCC 35210, 24 h
Enterococcus faecalis [16] = assay: Bactericidal activity against Enterococcus faecalis isolate obtained from human after 24 hrs; format: functional
Aspergillus ochraceus [17] = assay: Antifungal activity against Aspergillus ochraceus ATCC 12066 after 72 hrs by serial dilution method; format: functional; conditions: ATCC 12066, 72 h
Aspergillus versicolor [18] = assay: Antifungal activity against Aspergillus versicolor ATCC 11730 after 72 hrs by serial dilution method; format: functional; conditions: ATCC 11730, 72 h
Aspergillus niger [19] = assay: Antifungal activity against Aspergillus niger ATCC 6275 after 72 hrs by serial dilution method; format: functional; conditions: ATCC 6275, 72 h
Aspergillus fumigatus [20] = assay: Antifungal activity against Aspergillus fumigatus plant isolate after 72 hrs by serial dilution method; format: functional
Trichoderma viride [21] = assay: Antifungal activity against Trichoderma viride IAM 5061 after 72 hrs by serial dilution method; format: functional; conditions: IAM 5061, 72 h
Penicillium ochrochloron [22] = assay: Antifungal activity against Penicillium ochrochloron ATCC 9112 after 72 hrs by serial dilution method; format: functional; conditions: ATCC 9112, 72 h
Talaromyces funiculosus [23] = assay: Antifungal activity against Penicillium funiculosum ATCC 36839 after 72 hrs by serial dilution method; format: functional; conditions: ATCC 36839, 72 h
[24] = Antifungal activity against Fusarium sporotrichioides IMT 496 after 72 hrs by serial dilution method; format: functional
Aspergillus ochraceus [25] = assay: Fungicidal activity against Aspergillus ochraceus ATCC 12066 after 72 hrs; format: functional; conditions: ATCC 12066, 72 h
Aspergillus versicolor [26] = assay: Fungicidal activity against Aspergillus versicolor ATCC 11730 after 72 hrs; format: functional; conditions: ATCC 11730, 72 h
Aspergillus niger [27] = assay: Fungicidal activity against Aspergillus niger ATCC 6275 after 72 hrs; format: functional; conditions: ATCC 6275, 72 h
Aspergillus fumigatus [28] = assay: Fungicidal activity against Aspergillus fumigatus plant isolate after 72 hrs; format: functional
Trichoderma viride [29] = assay: Fungicidal activity against Trichoderma viride IAM 5061 after 72 hrs; format: functional; conditions: IAM 5061, 72 h
Penicillium ochrochloron [30] = assay: Fungicidal activity against Penicillium ochrochloron ATCC 9112 after 72 hrs; format: functional; conditions: ATCC 9112, 72 h
Talaromyces funiculosus [31] = assay: Fungicidal activity against Penicillium funiculosum ATCC 36839 after 72 hrs; format: functional; conditions: ATCC 36839, 72 h
[32] = tested on: Fusarium sporotrichioides; assay: Fungicidal activity against Fusarium sporotrichioides IMT 496 after 72 hrs; format: functional; conditions: IMT 496, 72 h
Micrococcus flavus [33] = assay: Ratio of Ampicillin MIC to compound MIC for Micrococcus flavus ATCC 10240 after 24 hrs; format: functional
Enterococcus faecalis [34] = assay: Ratio of Ampicillin MIC to compound MIC for Enterococcus faecalis after 24 hrs; format: functional

| SMILES | MIC (Staphylococcus aureus [1]) [µM] | MIC (Bacillus cereus [2]) [µM] | MIC (Micrococcus flavus [3]) [µM] | MIC (Listeria monocytogenes [4]) [µM] | MIC (Pseudomonas aeruginosa [5]) [µM] | MIC (Salmonella typhimurium [6]) [µM] | MIC (Escherichia coli [7]) [µM] | MIC (Enterococcus faecalis [8]) [µM] | MBC (Staphylococcus aureus [9]) [µM] | MBC (Bacillus cereus [10]) [µM] | MBC (Micrococcus flavus [11]) [µM] | MBC (Listeria monocytogenes [12]) [µM] | MBC (Pseudomonas aeruginosa [13]) [µM] | MBC (Salmonella typhimurium [14]) [µM] | MBC (Escherichia coli [15]) [µM] | MBC (Enterococcus faecalis [16]) [µM] | MIC (Aspergillus ochraceus [17]) [µM] | MIC (Aspergillus versicolor [18]) [µM] | MIC (Aspergillus niger [19]) [µM] | MIC (Aspergillus fumigatus [20]) [µM] | other results |
| --- | --- | --- | --- | --- | --- | --- | --- | --- | --- | --- | --- | --- | --- | --- | --- | --- | --- | --- | --- | --- | --- |
| CNc1nc(C)c(C(=O)/C=C/c2ccc(Cl)cc2)s1 | 513 (≈ 150 µg/mL) | 342 (≈ 100 µg/mL) | 85.4 (≈ 25 µg/mL) | 342 (≈ 100 µg/mL) | 256 (≈ 75.1 µg/mL) | 290 (≈ 85.1 µg/mL) | 290 (≈ 85.1 µg/mL) | 171 (≈ 50.1 µg/mL) | 684 (≈ 200 µg/mL) | 513 (≈ 150 µg/mL) | 342 (≈ 100 µg/mL) | 513 (≈ 150 µg/mL) | 342 (≈ 100 µg/mL) | 342 (≈ 100 µg/mL) | 342 (≈ 100 µg/mL) | 342 (≈ 100 µg/mL) | 340 (≈ 99.5 µg/mL) | 170 (≈ 49.8 µg/mL) | 170 (≈ 49.8 µg/mL) | 170 (≈ 49.8 µg/mL) | MIC (Trichoderma viride [21]): 170 µM (≈ 49.8 µg/mL); MIC (Penicillium ochrochloron [22]): 340 µM (≈ 99.5 µg/mL); MIC (Talaromyces funiculosus [23]): 170 µM (≈ 49.8 µg/mL); MIC (10'-2 umol/ml) [24]: 17; MFC (Aspergillus ochraceus [25]): 513 µM (≈ 150 µg/mL); MFC (Aspergillus versicolor [26]): 340 µM (≈ 99.5 µg/mL); MFC (Aspergillus niger [27]): 340 µM (≈ 99.5 µg/mL); MFC (Aspergillus fumigatus [28]): 340 µM (≈ 99.5 µg/mL); MFC (Trichoderma viride [29]): 340 µM (≈ 99.5 µg/mL); MFC (Penicillium ochrochloron [30]): 513 µM (≈ 150 µg/mL); MFC (Talaromyces funiculosus [31]): 340 µM (≈ 99.5 µg/mL); MFC [32]: 170 µM (≈ 49.8 µg/mL); Ratio (Micrococcus flavus [33]): 3 |
| CNc1nc(C)c(C(=O)/C=C/c2ccccc2Cl)s1 | 306 (≈ 89.5 µg/mL) | 229 (≈ 67.1 µg/mL) | 229 (≈ 67.1 µg/mL) | 306 (≈ 89.5 µg/mL) | 260 (≈ 76.1 µg/mL) | 306 (≈ 89.5 µg/mL) | 229 (≈ 67.1 µg/mL) | 76.4 (≈ 22.4 µg/mL) | 459 (≈ 134 µg/mL) | 306 (≈ 89.5 µg/mL) | 260 (≈ 76.1 µg/mL) | 459 (≈ 134 µg/mL) | 306 (≈ 89.5 µg/mL) | 459 (≈ 134 µg/mL) | 306 (≈ 89.5 µg/mL) | 153 (≈ 44.8 µg/mL) | 306 (≈ 89.5 µg/mL) | 153 (≈ 44.8 µg/mL) | 306 (≈ 89.5 µg/mL) | 306 (≈ 89.5 µg/mL) | MIC (Trichoderma viride [21]): 153 µM (≈ 44.8 µg/mL); MIC (Penicillium ochrochloron [22]): 306 µM (≈ 89.5 µg/mL); MIC (Talaromyces funiculosus [23]): 306 µM (≈ 89.5 µg/mL); MIC (10'-2 umol/ml) [24]: 15.3; MFC (Aspergillus ochraceus [25]): 459 µM (≈ 134 µg/mL); MFC (Aspergillus versicolor [26]): 459 µM (≈ 134 µg/mL); MFC (Aspergillus niger [27]): 612 µM (≈ 179 µg/mL); MFC (Aspergillus fumigatus [28]): 612 µM (≈ 179 µg/mL); MFC (Trichoderma viride [29]): 306 µM (≈ 89.5 µg/mL); MFC (Penicillium ochrochloron [30]): 459 µM (≈ 134 µg/mL); MFC (Talaromyces funiculosus [31]): 612 µM (≈ 179 µg/mL); MFC [32]: 459 µM (≈ 134 µg/mL); Ratio (Enterococcus faecalis [34]): 3 |
| CNc1nc(C)c(C(=O)/C=C/c2ccc(OC)cc2)s1 | 290 (≈ 83.8 µg/mL) | 290 (≈ 83.8 µg/mL) | 85.4 (≈ 24.6 µg/mL) | 342 (≈ 98.6 µg/mL) | 342 (≈ 98.6 µg/mL) | 342 (≈ 98.6 µg/mL) | 342 (≈ 98.6 µg/mL) | 171 (≈ 49.3 µg/mL) | 342 (≈ 98.6 µg/mL) | 342 (≈ 98.6 µg/mL) | 171 (≈ 49.3 µg/mL) | 513 (≈ 148 µg/mL) | 513 (≈ 148 µg/mL) | 513 (≈ 148 µg/mL) | 513 (≈ 148 µg/mL) | 171 (≈ 49.3 µg/mL) | 340 (≈ 98 µg/mL) | 170 (≈ 49 µg/mL) | 340 (≈ 98 µg/mL) | 170 (≈ 49 µg/mL) | MIC (Trichoderma viride [21]): 170 µM (≈ 49 µg/mL); MIC (Penicillium ochrochloron [22]): 340 µM (≈ 98 µg/mL); MIC (Talaromyces funiculosus [23]): 340 µM (≈ 98 µg/mL); MIC (10'-2 umol/ml) [24]: 34; MFC (Aspergillus ochraceus [25]): 513 µM (≈ 148 µg/mL); MFC (Aspergillus versicolor [26]): 513 µM (≈ 148 µg/mL); MFC (Aspergillus niger [27]): 683 µM (≈ 197 µg/mL); MFC (Aspergillus fumigatus [28]): 513 µM (≈ 148 µg/mL); MFC (Trichoderma viride [29]): 513 µM (≈ 148 µg/mL); MFC (Penicillium ochrochloron [30]): 513 µM (≈ 148 µg/mL); MFC (Talaromyces funiculosus [31]): 513 µM (≈ 148 µg/mL); MFC [32]: 513 µM (≈ 148 µg/mL); Ratio (Micrococcus flavus [33]): 3 |
